Test systems include SF-295 CNS; HOP-62 NSCLC; SNB-19 CNS; SW-620 colon; SK-MEL-2 melanoma; SNB-75 CNS; OVCAR-5 ovarian; NCI/ADR-RES ovarian; IGROV1 ovarian; SF-268 CNS.
Assay in all cases: DTP human tumour cell line panel, 48 h

The structures appear in SMILES notation.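 Compound exposure: 48 hours, 5 concentrations, 96-well plates. TGI: total growth inhibition.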

What is called TGI is the concentration at which net growth stops. With `Nn1c(Sc2nc3ccccc3c(=O)n2N)nc2ccccc2c1=O`, the TGI was 42.1 µM with SF-295 CNS; 35.9 µM in the assay with HOP-62 NSCLC; 24.6 µM in the assay on SNB-19 CNS; 7.13 µM with SW-620 colon; 14.3 µM in the assay with SK-MEL-2 melanoma; 34.8 µM in the assay on SNB-75 CNS. The TGI came to 40.6 µM with OVCAR-5 ovarian, 28.4 µM in the assay with NCI/ADR-RES ovarian, 23.3 µM with IGROV1 ovarian and 22.3 µM with SF-268 CNS.

For the molecule `CC1CN=C(c2ccc(CN3CCC(C4CCN(Cc5ccc(C6=NCC(C)N6)cc5)CC4)CC3)cc2)N1` (stereo not given), the TGI in the assay with SF-295 CNS stood at 43.2 µM; in the assay on HOP-62 NSCLC, 30.9 µM; in the assay on SNB-19 CNS, 75.8 µM; with SW-620 colon, 43.1 µM; in the assay on SK-MEL-2 melanoma, 36 µM; with SNB-75 CNS, 31.1 µM. In addition, the TGI was 65.1 µM in the assay with OVCAR-5 ovarian, over 100 µM in the assay on NCI/ADR-RES ovarian, over 100 µM in the assay with IGROV1 ovarian and 53.7 µM in the assay with SF-268 CNS.

Regarding `N#C/C(=C1/c2cc([N+](=O)[O-])ccc2-c2c1cc([N+](=O)[O-])cc2[N+](=O)[O-])N1CCCCC1`, the TGI is over 100 µM with SF-295 CNS; over 100 µM with HOP-62 NSCLC; over 100 µM with SNB-19 CNS; over 100 µM in the assay on SW-620 colon; over 100 µM in the assay with SK-MEL-2 melanoma; 41.2 µM with SNB-75 CNS. The TGI in the assay on OVCAR-5 ovarian, in the assay on NCI/ADR-RES ovarian, in the assay with IGROV1 ovarian and in the assay with SF-268 CNS was over 100 µM throughout.

For `CC(C)(CN1CCCCC1)C(/C=C/c1ccccc1)=N\NC(=O)N/N=C(/C=C/c1ccccc1)C(C)(C)CN1CCCCC1`, the TGI with SF-295 CNS was determined as 3.09 µM; in the assay with HOP-62 NSCLC, 3.71 µM; in the assay on SNB-19 CNS it was 3.95 µM; in the assay on SW-620 colon, 3.13 µM; in the assay with SK-MEL-2 melanoma, 3.73 µM; in the assay on SNB-75 CNS, 3.05 µM. For the same molecule, the TGI in the assay with OVCAR-5 ovarian stood at 15.4 µM; with NCI/ADR-RES ovarian it was 4.01 µM; with IGROV1 ovarian, 6.07 µM; in the assay on SF-268 CNS it was 8.94 µM.

Turning to `COC(=O)/C=c1/c2ccccc2n2c1c1ccccc1[n+]2C`, the TGI with SF-295 CNS was 5.63 µM; in the assay on HOP-62 NSCLC, 15.3 µM; in the assay on SNB-19 CNS, over 100 µM; in the assay with SW-620 colon, 12.3 µM; in the assay on SK-MEL-2 melanoma, 11.6 µM; in the assay on SNB-75 CNS it was 8.44 µM. In addition, the TGI was 17.6 µM in the assay with OVCAR-5 ovarian, over 100 µM in the assay with NCI/ADR-RES ovarian, 20.9 µM in the assay on IGROV1 ovarian and 22.8 µM in the assay with SF-268 CNS.

For `CCN1CCCn2c(=O)[nH]c3cc(Br)cc1c32`, the TGI with SF-295 CNS is over 100 µM; in the assay on HOP-62 NSCLC it was over 100 µM; in the assay with SNB-19 CNS, over 100 µM; in the assay on SW-620 colon it was over 100 µM; in the assay with SK-MEL-2 melanoma, over 100 µM; in the assay on SNB-75 CNS, 43.2 µM. Moreover, the TGI with OVCAR-5 ovarian, in the assay with NCI/ADR-RES ovarian, in the assay on IGROV1 ovarian and in the assay with SF-268 CNS was over 100 µM throughout.

For `Clc1nc2c(C#Cc3ccccc3)ncnc2n1C1CCCCO1` (stereo not given), the TGI in the assay on SF-295 CNS was 54.4 µM; in the assay with HOP-62 NSCLC, over 100 µM; with SNB-19 CNS, 37.3 µM; in the assay on SW-620 colon it was 55.3 µM; with SK-MEL-2 melanoma it was 31.5 µM; in the assay on SNB-75 CNS it was over 100 µM. The TGI with OVCAR-5 ovarian is 25.9 µM; in the assay on NCI/ADR-RES ovarian, over 100 µM; in the assay on IGROV1 ovarian it was 29.2 µM; in the assay on SF-268 CNS it was 37.2 µM.

As for `Cc1c(C#N)c(=N)oc2ccccc12`, the TGI in the assay on SF-295 CNS, in the assay on HOP-62 NSCLC, in the assay with SNB-19 CNS, in the assay on SW-620 colon, with SK-MEL-2 melanoma and with SNB-75 CNS was over 100 µM each time. Further, the TGI in the assay on OVCAR-5 ovarian, with NCI/ADR-RES ovarian, in the assay on IGROV1 ovarian and in the assay on SF-268 CNS was over 100 µM each time.

For the molecule `Nc1ccc2c(c1)NC(=O)[C@@H]1CCCN1C2=O`, the TGI with SF-295 CNS, in the assay on HOP-62 NSCLC, in the assay on SNB-19 CNS, in the assay with SW-620 colon, in the assay with SK-MEL-2 melanoma and with SNB-75 CNS was over 100 µM in each case. Further, the TGI in the assay with OVCAR-5 ovarian, with NCI/ADR-RES ovarian, in the assay with IGROV1 ovarian and in the assay on SF-268 CNS was over 100 µM throughout.

In the case of `COc1cc2oc(=O)cc(C)c2c(OC)c1OC(C)=O`, the TGI in the assay on SF-295 CNS, in the assay on HOP-62 NSCLC, in the assay on SNB-19 CNS, in the assay on SW-620 colon, with SK-MEL-2 melanoma and in the assay on SNB-75 CNS was over 100 µM each time. Also, the TGI in the assay with OVCAR-5 ovarian, in the assay on NCI/ADR-RES ovarian, with IGROV1 ovarian and in the assay with SF-268 CNS was over 100 µM each time.

For `Cn1c2ccc(C3=NCCN3)cc2c2cc(C3=NCCN3)ccc21`, the TGI in the assay with SF-295 CNS, in the assay with HOP-62 NSCLC, in the assay with SNB-19 CNS, in the assay with SW-620 colon, in the assay on SK-MEL-2 melanoma and in the assay with SNB-75 CNS was over 100 µM in each case. Further, the TGI in the assay on OVCAR-5 ovarian, in the assay on NCI/ADR-RES ovarian, in the assay on IGROV1 ovarian and in the assay with SF-268 CNS was over 100 µM in each case.

As to `O=C(NCCCCCCO)c1cccc2cc3ccccc3nc12`, the TGI in the assay on SF-295 CNS is 32.8 µM; in the assay with HOP-62 NSCLC, 32.9 µM; with SNB-19 CNS, 32.1 µM; in the assay with SW-620 colon, over 100 µM; in the assay with SK-MEL-2 melanoma, 30.1 µM; in the assay on SNB-75 CNS, 37.3 µM. Moreover, the TGI is 38.9 µM in the assay with OVCAR-5 ovarian, over 100 µM in the assay with NCI/ADR-RES ovarian and 35.7 µM in the assay with IGROV1 ovarian.

On to `C=CC(OC(C)=O)c1ccc(OC(C)=O)cc1` (stereo not given), for which the TGI was 22.1 µM in the assay on SF-295 CNS; 12.3 µM in the assay with HOP-62 NSCLC; 28.7 µM in the assay with SNB-19 CNS; 12 µM in the assay on SK-MEL-2 melanoma; 31.5 µM in the assay with SNB-75 CNS; 28.1 µM in the assay with OVCAR-5 ovarian. Moreover, the values for the TGI in the assay on NCI/ADR-RES ovarian, in the assay on IGROV1 ovarian and with SF-268 CNS were 54.3 µM, 29.5 µM and 10.7 µM, respectively.

With `O=[N+]([O-])c1ccc2nc(/C=C(\O)c3ccc(Cl)cc3)c(/C=C(\O)c3ccc(Cl)cc3)nc2c1`, the TGI in the assay with SF-295 CNS, with HOP-62 NSCLC, with SNB-19 CNS, with SK-MEL-2 melanoma, in the assay with SNB-75 CNS and with OVCAR-5 ovarian was over 100 µM in each case. For the same molecule, the TGI in the assay on NCI/ADR-RES ovarian, with IGROV1 ovarian and in the assay with SF-268 CNS was over 100 µM in each case.

For `Cc1ccc(/C=C2/NC(=S)SC2=O)cc1`, the TGI in the assay on SF-295 CNS was over 100 µM; in the assay on HOP-62 NSCLC it was over 100 µM; in the assay with SNB-19 CNS, over 100 µM; in the assay with SW-620 colon, over 100 µM; with SK-MEL-2 melanoma it was over 100 µM; in the assay with SNB-75 CNS, 80.8 µM. In addition, the TGI in the assay on OVCAR-5 ovarian, with NCI/ADR-RES ovarian and in the assay with IGROV1 ovarian was over 100 µM each time.

For the molecule `COc1ccc(OC)c(C[P+](c2ccccc2)(c2ccccc2)c2ccccc2)c1`, the TGI in the assay on SF-295 CNS is over 75.9 µM; in the assay with HOP-62 NSCLC it was 22.2 µM; in the assay on SNB-19 CNS, over 75 µM; with SW-620 colon, over 100 µM; in the assay on SNB-75 CNS, 22.2 µM; in the assay with OVCAR-5 ovarian, over 100 µM. Also, the results for the TGI in the assay with NCI/ADR-RES ovarian, in the assay on IGROV1 ovarian and with SF-268 CNS were over 100 µM, 21.7 µM and over 100 µM, respectively.

In the case of `COc1ccccc1NC(=S)N/N=C/c1ccccn1`, the TGI is over 31.6 µM in the assay with SF-295 CNS; 25.6 µM with HOP-62 NSCLC; over 46.4 µM in the assay with SNB-19 CNS; over 46.4 µM in the assay with SW-620 colon; 29.5 µM in the assay on SK-MEL-2 melanoma; 24.4 µM with SNB-75 CNS. For the same molecule, the TGI in the assay on OVCAR-5 ovarian was over 46.4 µM; in the assay on NCI/ADR-RES ovarian, 0.237 µM; with SF-268 CNS, 3.59 µM.

Regarding `COc1cc2c(c(OC)c1)C(=O)O[C@H](C)CCCC/C=C/C2`, the TGI was over 32.2 µM with SF-295 CNS; 24.7 µM in the assay with HOP-62 NSCLC; over 32.5 µM with SNB-19 CNS; 22.9 µM with SW-620 colon; 31.1 µM in the assay with SK-MEL-2 melanoma; over 32.8 µM in the assay on SNB-75 CNS. The TGI in the assay with OVCAR-5 ovarian was over 32.7 µM; in the assay on NCI/ADR-RES ovarian, over 77.2 µM; with IGROV1 ovarian it was over 31.1 µM.

As to `Cn1ccc2c(c1=O)C(=O)OC2(C)C`, the TGI in the assay on SF-295 CNS, in the assay with HOP-62 NSCLC, in the assay on SNB-19 CNS, with SW-620 colon, with SNB-75 CNS and in the assay with OVCAR-5 ovarian was over 100 µM each time. For the same molecule, the TGI in the assay on NCI/ADR-RES ovarian, in the assay on IGROV1 ovarian and in the assay on SF-268 CNS was over 100 µM in each case.

In the case of `COc1cc(CNC(=S)CCCCCCCCCCC(C)C)ccc1O`, the TGI with SF-295 CNS, with HOP-62 NSCLC, in the assay on SNB-19 CNS, in the assay with SW-620 colon, with SNB-75 CNS and with OVCAR-5 ovarian was over 100 µM throughout. Further, the TGI with NCI/ADR-RES ovarian, with IGROV1 ovarian and with SF-268 CNS was over 100 µM throughout.

As for `N#C/C(C(=O)Nc1ccccc1)=C(/N)N1CCCCC1`, the TGI in the assay with SF-295 CNS, in the assay with HOP-62 NSCLC, in the assay on SNB-19 CNS, in the assay with SW-620 colon, in the assay on SK-MEL-2 melanoma and in the assay on SNB-75 CNS was over 100 µM throughout. The TGI in the assay on OVCAR-5 ovarian, in the assay on NCI/ADR-RES ovarian and in the assay on IGROV1 ovarian was over 100 µM throughout.

(Values after PubChem BioAssay (NCI).)
